One block for each molecule: values may come before it.
Legend:
IDH2 R140Q [1] = target: T1, IDH2 R140Q (Homo sapiens, UniProt P48735, R140Q); conditions: 10 μM compound; NADH 0.5 mM; αKG 10 mM; enzyme 7.5 μg/ml; 37° C.
T1 sequence (P48735 40-452 R140Q): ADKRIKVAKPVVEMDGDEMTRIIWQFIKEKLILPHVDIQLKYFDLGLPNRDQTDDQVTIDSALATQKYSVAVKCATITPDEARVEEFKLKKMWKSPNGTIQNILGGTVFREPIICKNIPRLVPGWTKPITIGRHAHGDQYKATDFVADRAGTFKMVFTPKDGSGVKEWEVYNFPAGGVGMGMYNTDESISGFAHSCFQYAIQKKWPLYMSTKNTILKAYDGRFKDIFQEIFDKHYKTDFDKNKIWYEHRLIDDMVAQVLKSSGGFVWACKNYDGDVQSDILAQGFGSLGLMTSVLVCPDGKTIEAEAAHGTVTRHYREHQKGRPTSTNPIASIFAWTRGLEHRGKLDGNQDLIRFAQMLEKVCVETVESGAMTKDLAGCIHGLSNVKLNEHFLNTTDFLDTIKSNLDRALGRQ
Description: Briefly, enzyme reactions were set up in 384-well plate format with purified enzyme (7.5 μg/ml), NADH (0.5 mM), αKG (10 mM; added last to start reaction), and HEPES buffer. Compounds were screened using a concentration of 10 μM in DMSO. No enzyme groups were used for each condition as negative controls. […] Reactions were incubated at 37° C., and absorbance at 340 nm was monitored using an EnVision plate reader at 30-minute intervals. Results were analyzed using KNIME. Briefly, concatenated spreadsheets containing absorbance metadata (well number, plate information, absorbance read outs etc.) were merged. For baseline correction, the “no enzyme with drug” values (N1: no enzyme negative control with drug) for each condition were subtracted from the “plus enzyme with drug” values (S: enzyme with drug) for each condition. Then the baseline corrected enzyme values (S−N1) were normalized to the “no enzyme control” values (N2: no enzyme control with DMSO) to calculate robust (median based) percent of “no enzyme control” (POC) and Z-scores. […] To confirm hits, enzyme assays were carried out in the same as screening but in a 96-well plate format with 10 μM of each hit, and purified enzyme (7.5 μg/ml), NADH (0.5 mM), and αKG (10 mM). Absorbance was read at 340 nm every 15 sec for 3 hr.

IDH2 R172X = assay: Effect of EDBN on IDH2 R172X mutations; type: biochemical; conditions: FIG. 50
IDH2 R140Q [2] = target: T1, IDH2 R140Q; assay: NADH-dependent reduction of αKG to 2HG, RQ; conditions: role: cofactor; RQ homodimers; NADH 0.25 mM; αKG 5.0 mM
[3] = test system: Ba/F3 leukemia cells with IDH2 allelic configurations; type: cell-based, mouse
Description: Panel A Schematic depicting IDH2 dimers retrovirally transduced into Ba/F3 cells. ‘Pre’received IDH2 WT-mCherry plus IDH2 RQ-YFP; ‘Trans’ received IDH2 RQ-YFP plus IDH2 IM-GFP; ‘Cis’ received IDH2 WT-mCherry plus IDH2 RQ/IM-GFP. […] Panel C Competitive growth of ‘Pre’, ‘Trans’, and ‘Cis’ cells mixed at a 1:1:1 ratio and cultured with vehicle (DMSO) or the mutant IDH2 inhibitor enasidenib (100 nM). Changes in the percentage of ‘Pre’, ‘Trans’, and ‘Cis’ cells were assessed weekly by flow cytometry (n=3). […] Results throughout figure are representative of >3 independent experiments. Data are mean±SEM unless otherwise specified. **P<0.01, ***P<0.001, ****P<0.0001.
Cells harboring these distinct allelic configurations were marked with different combinations of fluorescent proteins (FIG. 1 panel B).

IDH2 R140Q [4] = conditions: cited from earlier work
[5] = substrate: O=C(O)CCC(=O)C(=O)O; assay: NADPH-dependent 2HG production, Michaelis-Menten kinetics, active-site RQ homodimers; type: biochemical, human; conditions: other: role: substrate, cofactor NADPH 0.33 mM, enzyme 7.5 μg/ml, 37.0 °C

Molecule: CC(=O)O[C@@H]1C[C@H]2C(C)(C)C(=O)C=C[C@]2(C)[C@H]2CC[C@]3(C)C(=CC(=O)O[C@H]3c3ccoc3)[C@@]21C [Deoxygedunin]
- Z-Score, Screen #1 (IDH2 R140Q [1]): 7.959
- Z-Score, Screen #2 (IDH2 R140Q [1]): 7.554

- Z-Score, Screen #1 (IDH2 R140Q [1]): 9.578
- Z-Score, Screen #2 (IDH2 R140Q [1]): 4.452
Molecule: CC(=O)O[C@@H]1C[C@H]2C(C)(C)C(=O)CC[C@]2(C)[C@H]2CC[C@@]3(C)[C@H](c4ccoc4)OC(=O)[C@H]4O[C@]43[C@@]21C [Dihydrogedunin]

Molecule: CCc1ccc2[nH]c3nc(C)cc(C)c3c(=O)c2c1 [EDBN, 7-ethyl-2,4-dimethylbenzo[b][1,8]naphthyridin-5(10H)-one]
- activity on IDH2 R172X mutations (IDH2 R172X): also works on IDH2 R172X mutations

Molecule: O=c1c(O)c(-c2ccc(O)c(O)c2)oc2c(O)c(O)cc(O)c12 [Gossypetin]
- Z-Score, Screen #1 (IDH2 R140Q [1]): 9.982
- Z-Score, Screen #2 (IDH2 R140Q [1]): 13.35

- Z-Score, Screen #1 (IDH2 R140Q [1]): 11.33
- Z-Score, Screen #2 (IDH2 R140Q [1]): 8.499
Molecule: COC1=C(OC)C(=O)C(CCCCCCCCCCO)=C(C)C1=O [Idebenone]

- use of NADH to reduce αKG (IDH2 R140Q [2]): no ability to use NADH to reduce αKG
Molecule: NC(=O)C1=CN([C@@H]2O[C@H](COP(=O)(O)OP(=O)(O)OC[C@H]3O[C@@H](n4cnc5c(N)ncnc54)[C@H](O)[C@@H]3O)[C@@H](O)[C@H]2O)C=CC1 [NADH, nicotinamide adenine dinucleotide]

Molecule: CC(C)(O)CNc1nc(Nc2ccnc(C(F)(F)F)c2)nc(-c2cccc(C(F)(F)F)n2)n1 [enasidenib]
- competitive growth of 'Cis' cells [3]: selective growth disadvantage
- competitive growth of 'Trans' cells [3]: selectively grew out in the presence of enasidenib
- effect of allosteric binding on active site conformation (IDH2 R140Q [4]): can stabilize inhibitory open conformation

B1: IDH2 R140Q (RQ) homodimers (Homo sapiens; R140Q) (protein)
chain: T1 sequence (P48735 40-452 R140Q)
- Km [5]: 1740 µM
- Vmax [5]: 6.95 µM/min
- kcat/Km [5]: 2.14e+06 M⁻¹ s⁻¹

— patent US20260308535A1, “ANTI-CANCER TREATMENTS AND METHODS OF USE THEREOF” (Memorial Sloan-Kettering Cancer Center, priority 2023, published 2026)
